Data as given in US20240325340A1, “ISOFORM SPECIFIC AGONISTS TARGETING AKT KINASE” (Thomas Jefferson University, priority 2021, published 2024).
“Also recorded” adds a separate entry of the source.

Assays:
[1] = system: cells; experiment: Cellular toxicity (cells not specified); assay type: cell-based
[2] = system: Akt; experiment: Akt activation (phospho-T308, p-PRAS40) in human epithelial cells (Hacat); assay type: cell-based; conditions: for efficacy in Akt activation compared to RA97 / length of action in Akt activation compared to RA97 / phosphorylation of Akt substrate PRAS40: 40 μM, serum-starved Hacat; for efficacy in Akt activation compared to RA97 / length of action in Akt activation compared to RA97: 2 hr, 4 hr or 24 hr; for synergy with FBS in Akt activation: 10 μM or 20 μM with 0.25% fetal bovine serum; for synergy with FBS in Akt activation / Akt activation at low dose (phospho-T308): Hacat; for synergy with FBS in Akt activation / Akt activation at low dose (phospho-T308) / phosphorylation of Akt substrate PRAS40: 6 hr; for Akt activation at low dose (phospho-T308): 10 μM or 20 μM
Description: FIGS. 6A-6D illustrate immunoblots for Akt activators converted from non-PAINS Akt antagonists. FIG. 6A: 40 μM of each compound derived from sulfonamides, di-tert butylphenols, or pyridines were incubated in human epithelial cells (A549) for 2.5 hr. Lysates were probed for phospho-T308 and total Akt (tAkt) using ProteinSimple WES digital western system. Insulin was uses as positive control. […] 40 μM of each compound was incubated in serum-starved human epithelial cells (Hacat) for 2 hr, 4 hr, or 24 hr as indicated. Cell lysates were probed for phospho-T308 and total Akt (tAkt). […] 10 μM or 20 μM of T775 or T776 were incubated with or without 0.25% fetal bovine serum (FBS) medium in human epithelial cells (Hacat) for 6 hr. Cell lysates were probed for phospho-T308, total Akt (tAkt), and GAPDH. […] 40 μM of each compound was incubated in serum-starved human epithelial cells (Hacat) for 6 hr. Cell lysates were probed for phospho-T308, total Akt (tAkt), Akt substrate, p-PRAS40, and GAPDH.

[3] = system: Akt; experiment: Ceramide and cathepsin G blockade of insulin activation of Akt in H9C2 myoblasts; assay type: cell-based
Description: H9C2 myoblasts or neonatal rat myocytes were treated with neutrophil protease Cathepsin G (0.01 U/mL), 4 hr or with 100 μM C2-Ceramide (100 μM), 2 hr. Then cells were stimulated with insulin with or without 30 μM T625 for 30 minutes. Lysates were immunoblotted with the indicated antibodies.

[4] = system: A549 cells; experiment: Cytotoxicity by release of lactate dehydrogenase (LDH) in A549 cells; assay type: cell-based, human; conditions: 40 μM, 24 hours, serum-free media
Description: Cytotoxicity was determined by the release of lactate dehydrogenase (LDH) into cell culture media. A549 cells were incubated with 40 μM of each compound for 24 hours in serum-free media (n=3 for each compound). FIG. 8B: A visual assessment of cell morphology after 24 hrs treatment with 40 μM of each compound in serum-free media. 100× images are shown.

[5] = system: Hacat cells; experiment: Cellular toxicity / cell morphology in Hacat cells after 24 hrs; assay type: cell-based, human; conditions: 40 μM
[6] = cited from earlier work
[7] = Compound stability; assay type: physicochemical
[8] = biological target: recombinant pAkt1 (Homo sapiens, UniProt P31749); experiment: Recombinant phospho-Akt dephosphorylation by PP2A or total cellular phosphatase extracts (immunoblot pT308); assay type: biochemical; conditions: 40 μM compound, 30 minutes at 30° C.
Chain of recombinant pAkt1 (P31749 whole entry): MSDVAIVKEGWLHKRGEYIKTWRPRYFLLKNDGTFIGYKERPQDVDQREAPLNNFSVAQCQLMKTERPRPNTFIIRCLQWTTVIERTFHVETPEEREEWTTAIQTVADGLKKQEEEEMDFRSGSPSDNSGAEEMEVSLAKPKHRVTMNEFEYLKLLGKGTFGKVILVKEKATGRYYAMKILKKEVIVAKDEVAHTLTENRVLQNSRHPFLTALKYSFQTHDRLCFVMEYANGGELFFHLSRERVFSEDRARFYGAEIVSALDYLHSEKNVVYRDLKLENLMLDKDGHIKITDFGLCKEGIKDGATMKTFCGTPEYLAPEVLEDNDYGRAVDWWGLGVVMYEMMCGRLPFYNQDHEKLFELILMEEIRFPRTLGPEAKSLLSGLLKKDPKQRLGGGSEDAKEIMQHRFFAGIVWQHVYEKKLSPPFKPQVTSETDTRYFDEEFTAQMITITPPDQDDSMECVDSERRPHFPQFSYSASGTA
Description: FIG. 1A: Recombinant phospho-Akt (50 ng) were pre-mixed with DMSO or with 40 μM 4H-Chromenes with carboxylate side chain (SC-79 and HA-14) or with 60 μM malononitrile side chain (T625) at 4° C. Then recombinant PP2A (70 ng PP2A-C) or total cellular phosphatase extracts were added and incubated for 30 minutes at 30° C. After incubation, protein extracts were subjected to immunoblot analysis using antibodies detecting phosphorylated Akt (T308), total Akt and PP2A catalytic subunit. FIG. 1B comprises a graph showing the percentage of Akt dephosphorylation at 30 minutes (Dephos. %) (n=6) *P<0.01 vs. DMSO.

With `CCCc1nc2ccc(Cl)cc2c(-c2ccccc2)c1C(=O)OCC` [T748, ethyl 6-chloro-4-phenyl-2-propylquinoline-3-carboxylate] the “toxicity compared to RA97” value [1] was “lack of toxicity”, the “efficacy in Akt activation compared to RA97” value (from here on “efficacy … compared to RA97”) [2] was “improved efficacy” and the “length of action in Akt activation compared to RA97” value (“length of action … compared to RA97” below) [2] was “improved length of action”.

For `CCCCCCCCCCCCC/C=C/[C@@H](O)[C@H](CO)NC(C)=O` [C2-ceramide, reference compound], the “block of insulin activation of Akt” value ([3]; 100 μM, 2 hr) was “block insulin activation of Akt”.

In the case of `CCOC(=O)CCc1c(C(=O)OCC)c(C(C)(C)C)nc2ccc(Cl)cc12` [T776, ethyl 2-tert-butyl-6-chloro-4-(3-ethoxy-3-oxopropyl)quinoline-3-carboxylate], the “toxicity compared to RA97” value [1] is reported as “lack of toxicity”, the “synergy with FBS in Akt activation” value [2] is reported as “synergize with FBS” and the “Akt activation at low dose (phospho-T308)” value [2] is reported as “activate Akt”. The “efficacy … compared to RA97” value [2] was “improved efficacy”, the “length of action … compared to RA97” value [2] was “improved length of action” and the “phosphorylation of Akt substrate PRAS40” value [2] was “phosphorylated Akt substrate, PRAS40”. The “cellular toxicity (LDH release)” value [4] was “failed to show significant cellular toxicity” and the cellular toxicity [5] was “failed to show significant cellular toxicity”.

For `CCCc1nc2ccc(Cl)cc2c(CCC(=O)OCC)c1C(=O)OCC` [T775, ethyl 6-chloro-4-(3-ethoxy-3-oxopropyl)-2-propylquinoline-3-carboxylate], the “toxicity compared to RA97” value [1] was “lack of toxicity”, the “synergy with FBS in Akt activation” value [2] was “synergize with FBS” and the “Akt activation at low dose (phospho-T308)” value [2] was “activate Akt”. The “efficacy … compared to RA97” value [2] was “improved efficacy”, the “length of action … compared to RA97” value [2] was “improved length of action” and the “phosphorylation of Akt substrate PRAS40” value [2] was “phosphorylated Akt substrate, PRAS40”. The “cellular toxicity (LDH release)” value [4] was “failed to show significant cellular toxicity” and the cellular toxicity [5] was “failed to show significant cellular toxicity”.

In the case of `CC(C)(Sc1cc(C(C)(C)C)c(O)c(C(C)(C)C)c1)Sc1cc(C(C)(C)C)c(OC(=O)CCC(=O)O)c(C(C)(C)C)c1` [Succinobucol], the insulin sensitivity ([6]; literature) is listed as “improve insulin sensitivity” and the drug safety ([6]; numerous clinical trials of specific diabetic patient populations) is listed as “established drug safety record”.

For `CCOC(=O)C1=C(N)Oc2ccc(Cl)cc2C1C(C#N)C(=O)OCC` (centres unmarked) [SC79], the compound stability [7] was “highly labile”, the cellular toxicity [1] was “toxic to cells” and the “block of recombinant pAkt1 dephosphorylation by PP2A and cellular phosphatases” value [8] was “enhance intrinsic resistance of the Akt kinase to dephosphorylation; also recorded: block recombinant pAkt1 dephosphorylation by PP2A and cellular phosphatases”.

For `CCOC(=O)C1=C(N)Oc2ccc(Br)cc2C1C(C#N)C(=O)OCC` (centres unmarked) [HA14], the compound stability [7] was “highly labile”, the cellular toxicity [1] was “toxic to cells” and the “block of recombinant pAkt1 dephosphorylation by PP2A and cellular phosphatases” value [8] was “enhance intrinsic resistance of the Akt kinase to dephosphorylation; also recorded: block recombinant pAkt1 dephosphorylation by PP2A and cellular phosphatases”.

B1: cathepsin G: neutrophil protease Cathepsin G (protein, UniProt P08311 21-244, looked up)
Cathepsin G: IIGGRESRPHSRPYMAYLQIQSPAGQSRCGGFLVREDFVLTAAHCWGSNINVTLGAHNIQRRENTQQHITARRAIRHPQYNQRTIQNDIMLLQLSRRVRRNRNVNPVALPRAQEGLRPGTLCTVAGWGRVSMRRGTDTLREVQLRVQRDRQCLRIFGSYDPRRQICVGDRRERKAAFKGDSGGPLLCNNVAHGIVSYGKSSGVPPEVFTRVSSFLPWIRTTMRS
With B1 the “block of insulin activation of Akt” value ([3]; 0.01 U/mL, 4 hr) was “block insulin activation of Akt”.
